According to patent publication US11000033B2, “Ketone or oxime compound, and herbicide” (NISSAN CHEMICAL CORPORATION, priority 2014, dated 2021):

Tests used:
Assay type in all cases: in vivo
[1] = tested on: Scirpus juncoides; assay: Test Example 2: herbicidal activity, application during weed generation in submerged conditions (symbol B); conditions: Table 23; application herbicide amount 320 g/ha; grade 0-5 by criteria of Test Example 1
Procedure, shortened: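 Read-out: herbicidal effect on each species rated on a visual scale 3 weeks after treatment. Plants were raised together from seed in flooded alluvial soil (4 cm water) at 25° C. to 30° C. and treated at one to two leaves by water-surface application of diluted emulsion.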

[2] = tested on: Leptochloa chinensis; assay: Test Example 3: herbicidal effect by foliage application, Wagner pot (symbol D); conditions: application herbicide amount 320 g/ha
Procedure, shortened: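 Scoring took place 3 weeks after application, using fixed criteria. Plants had been raised from seed for 14 days at 25 to 30 °C in submerged alluvial soil before a diluted emulsion of the test compound was sprayed uniformly on the leaves.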

[3] = tested on: directly sowed rice plant; assay: Test Example 3: effect on crop by foliage application, Wagner pot (symbol b); conditions: application herbicide amount 320 g/ha
Procedure, shortened: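 Steps: fill a 1/10000-are Wagner pot with alluvial soil; add water and mix to submerge at 0.1–0.5 cm depth; sow rice plus Echinochloa crus-galli var. crus-galli, Leptochloa chinensis and Cyperus difformis; grow in a 25–30 °C greenhouse.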

[4] = tested on: Digitaria ciliaris; assay: Test Example 4: herbicidal effect by soil treatment (symbol F); conditions: application herbicide amount 320 g/ha
Procedure, shortened: (§1)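 Seeds were sown in sterilized diluvial soil, covered with about 1.5 cm of soil, and the soil surface was sprayed with a water-diluted emulsion of the compound at a predetermined rate. Plants grew in a greenhouse at 25° C. to 30° C.; effects were scored visually 3 weeks after application.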

[5] = tested on: Avena fatua; assay: Test Example 4: herbicidal effect by soil treatment (symbol I); conditions: application herbicide amount 320 g/ha
Procedure, shortened: as §1

[6] = tested on: Abutilon theophrasti; assay: Test Example 4: herbicidal effect by soil treatment (symbol M); conditions: application herbicide amount 320 g/ha
Procedure, shortened: as §1

[7] = tested on: Stellaria media; assay: Test Example 4: herbicidal effect by soil treatment (symbol P); conditions: application herbicide amount 320 g/ha
Procedure, shortened: as §1

[8] = tested on: corn; assay: Test Example 4: effect on crop by soil treatment (symbol c); conditions: application herbicide amount 320 g/ha
Procedure, shortened: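 The test used sterilized diluvial soil. Seed was set down in spots and overlaid with about 1.5 cm of soil before growth in a greenhouse kept at 25° C. to 30° C.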

[9] = tested on: beet; assay: Test Example 4: effect on crop by soil treatment (symbol f); conditions: application herbicide amount 320 g/ha
Procedure, shortened: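 Steps: fill box with sterilized diluvial soil; sow seed spot-like; cover with ~1.5 cm soil; grow in greenhouse (25° C. to 30° C.).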

[10] = tested on: Avena fatua; assay: Test Example 5: herbicidal effect by foliage application, plastic box (symbol I); conditions: 320 g/ha, 3 weeks after application
Procedure, shortened: (§2)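 Sowing in sterilized diluvial soil, 14 days' greenhouse growth at 25° C. to 30° C., then uniform small-sprayer foliar application of aqueous emulsion dilution; plants scored three weeks afterwards.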

[11] = tested on: Lolium multiflorum Lam.; assay: Test Example 5: herbicidal effect by foliage application, plastic box (symbol K); conditions: 320 g/ha, 3 weeks after application
Procedure, shortened: as §2

[12] = tested on: Abutilon theophrasti; assay: Test Example 5: herbicidal effect by foliage application, plastic box (symbol M); conditions: 320 g/ha, 3 weeks after application
Procedure, shortened: as §2

[13] = tested on: wheat; assay: Test Example 5: effect on crop by foliage application, plastic box (symbol e); conditions: 320 g/ha, 3 weeks after application
Procedure, shortened: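 Greenhouse culture at 25° C. to 30° C. followed spot-like sowing into sterilized diluvial soil, with seed covered by roughly 1.5 cm of soil.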

CON=C(C)CC1CC(OC(=O)C(C)Oc2ccccc2)=C(c2c(C)cc(C)cc2C)C1=O (stereo not drawn) [1-060]
Herbicidal effect grade, B: Scirpus juncoides [1]: 4 (Herbicidal ratio of 70% or higher and lower than 90%) | herbicidal effect on D (Leptochloa chinensis), grade 0-5 [2]: 5 (Herbicidal ratio of 90% or more (almost completely withered)) | effect on crop b (directly sowed rice plant), grade 0-5 [3]: 5 (Herbicidal ratio of 90% or more (almost completely withered)) | F (Digitaria ciliaris) herbicidal effect grade [4]: 5 (Herbicidal ratio of 90% or more (almost completely withered)) | I (Avena fatua) herbicidal effect grade [5]: 3 (Herbicidal ratio of 40% or higher and lower than 70%) | M (Abutilon theophrasti) herbicidal effect grade [6]: 4 (Herbicidal ratio of 70% or higher and lower than 90%) | P (Stellaria media) herbicidal effect grade [7]: 0 (Herbicidal ratio of 5% or lower (almost no effect)) | c (corn) effect on crop grade [8]: 4 (Herbicidal ratio of 70% or higher and lower than 90%) | f (beet) effect on crop grade [9]: 0 (Herbicidal ratio of 5% or lower (almost no effect)) | I: Avena fatua, herbicidal effect grade [10]: 5 (Herbicidal ratio of 90% or more (almost completely withered)) | K: Lolium multiflorum Lam., herbicidal effect grade [11]: 5 (Herbicidal ratio of 90% or more (almost completely withered)) | M: Abutilon theophrasti, herbicidal effect grade [12]: 3 (Herbicidal ratio of 40% or higher and lower than 70%) | e: wheat, effect on crop grade [13]: 5 (Herbicidal ratio of 90% or more (almost completely withered))

CSCCON=C(C)CC1CC(O)=C(c2c(C)cc(C)cc2C)C1=O (stereo not drawn) [1-029]
Herbicidal effect grade, B: Scirpus juncoides [1]: 0 (Herbicidal ratio of 5% or lower (almost no effect)) | herbicidal effect on D (Leptochloa chinensis), grade 0-5 [2]: 5 (Herbicidal ratio of 90% or more (almost completely withered)) | effect on crop b (directly sowed rice plant), grade 0-5 [3]: 5 (Herbicidal ratio of 90% or more (almost completely withered)) | F (Digitaria ciliaris) herbicidal effect grade [4]: 5 (Herbicidal ratio of 90% or more (almost completely withered)) | I (Avena fatua) herbicidal effect grade [5]: 1 (Herbicidal ratio of 5% or higher and lower than 20%) | M (Abutilon theophrasti) herbicidal effect grade [6]: 0 (Herbicidal ratio of 5% or lower (almost no effect)) | P (Stellaria media) herbicidal effect grade [7]: 0 (Herbicidal ratio of 5% or lower (almost no effect)) | c (corn) effect on crop grade [8]: 0 (Herbicidal ratio of 5% or lower (almost no effect)) | f (beet) effect on crop grade [9]: 0 (Herbicidal ratio of 5% or lower (almost no effect)) | I: Avena fatua, herbicidal effect grade [10]: 5 (Herbicidal ratio of 90% or more (almost completely withered)) | K: Lolium multiflorum Lam., herbicidal effect grade [11]: 5 (Herbicidal ratio of 90% or more (almost completely withered)) | M: Abutilon theophrasti, herbicidal effect grade [12]: 1 (Herbicidal ratio of 5% or higher and lower than 20%) | e: wheat, effect on crop grade [13]: 5 (Herbicidal ratio of 90% or more (almost completely withered))

CON=C(CC1CC1)CC1CC(O)=C(c2c(C)cc(C)cc2C)C1=O (stereo not drawn) [1-070]
Herbicidal effect grade, B: Scirpus juncoides [1]: 0 (Herbicidal ratio of 5% or lower (almost no effect)) | herbicidal effect on D (Leptochloa chinensis), grade 0-5 [2]: 4 (Herbicidal ratio of 70% or higher and lower than 90%) | effect on crop b (directly sowed rice plant), grade 0-5 [3]: 5 (Herbicidal ratio of 90% or more (almost completely withered)) | F (Digitaria ciliaris) herbicidal effect grade [4]: 4 (Herbicidal ratio of 70% or higher and lower than 90%) | I (Avena fatua) herbicidal effect grade [5]: 0 (Herbicidal ratio of 5% or lower (almost no effect)) | M (Abutilon theophrasti) herbicidal effect grade [6]: 0 (Herbicidal ratio of 5% or lower (almost no effect)) | P (Stellaria media) herbicidal effect grade [7]: 0 (Herbicidal ratio of 5% or lower (almost no effect)) | c (corn) effect on crop grade [8]: 1 (Herbicidal ratio of 5% or higher and lower than 20%) | f (beet) effect on crop grade [9]: 0 (Herbicidal ratio of 5% or lower (almost no effect)) | I: Avena fatua, herbicidal effect grade [10]: 5 (Herbicidal ratio of 90% or more (almost completely withered)) | K: Lolium multiflorum Lam., herbicidal effect grade [11]: 5 (Herbicidal ratio of 90% or more (almost completely withered)) | M: Abutilon theophrasti, herbicidal effect grade [12]: 0 (Herbicidal ratio of 5% or lower (almost no effect)) | e: wheat, effect on crop grade [13]: 0 (Herbicidal ratio of 5% or lower (almost no effect))

CC(CC1CC(O)=C(c2c(C)cc(C)cc2C)C1=O)=NOc1ccccc1 (stereo not drawn) [1-057]
Herbicidal effect grade, B: Scirpus juncoides [1]: 0 (Herbicidal ratio of 5% or lower (almost no effect)) | herbicidal effect on D (Leptochloa chinensis), grade 0-5 [2]: 3 (Herbicidal ratio of 40% or higher and lower than 70%) | effect on crop b (directly sowed rice plant), grade 0-5 [3]: 5 (Herbicidal ratio of 90% or more (almost completely withered)) | F (Digitaria ciliaris) herbicidal effect grade [4]: 4 (Herbicidal ratio of 70% or higher and lower than 90%) | I (Avena fatua) herbicidal effect grade [5]: 0 (Herbicidal ratio of 5% or lower (almost no effect)) | M (Abutilon theophrasti) herbicidal effect grade [6]: 3 (Herbicidal ratio of 40% or higher and lower than 70%) | P (Stellaria media) herbicidal effect grade [7]: 0 (Herbicidal ratio of 5% or lower (almost no effect)) | c (corn) effect on crop grade [8]: 0 (Herbicidal ratio of 5% or lower (almost no effect)) | f (beet) effect on crop grade [9]: 0 (Herbicidal ratio of 5% or lower (almost no effect)) | I: Avena fatua, herbicidal effect grade [10]: 2 (Herbicidal ratio of 20% or higher and lower than 40%) | K: Lolium multiflorum Lam., herbicidal effect grade [11]: 5 (Herbicidal ratio of 90% or more (almost completely withered)) | M: Abutilon theophrasti, herbicidal effect grade [12]: 1 (Herbicidal ratio of 5% or higher and lower than 20%) | e: wheat, effect on crop grade [13]: 0 (Herbicidal ratio of 5% or lower (almost no effect))

CC(CC1CC(O)=C(c2c(C)cc(C)cc2C)C1=O)=NOC(C)C (stereo not drawn) [1-052]
Herbicidal effect grade, B: Scirpus juncoides [1]: 2 (Herbicidal ratio of 20% or higher and lower than 40%) | herbicidal effect on D (Leptochloa chinensis), grade 0-5 [2]: 5 (Herbicidal ratio of 90% or more (almost completely withered)) | effect on crop b (directly sowed rice plant), grade 0-5 [3]: 5 (Herbicidal ratio of 90% or more (almost completely withered)) | F (Digitaria ciliaris) herbicidal effect grade [4]: 5 (Herbicidal ratio of 90% or more (almost completely withered)) | I (Avena fatua) herbicidal effect grade [5]: 4 (Herbicidal ratio of 70% or higher and lower than 90%) | M (Abutilon theophrasti) herbicidal effect grade [6]: 4 (Herbicidal ratio of 70% or higher and lower than 90%) | P (Stellaria media) herbicidal effect grade [7]: 0 (Herbicidal ratio of 5% or lower (almost no effect)) | c (corn) effect on crop grade [8]: 3 (Herbicidal ratio of 40% or higher and lower than 70%) | f (beet) effect on crop grade [9]: 0 (Herbicidal ratio of 5% or lower (almost no effect)) | I: Avena fatua, herbicidal effect grade [10]: 5 (Herbicidal ratio of 90% or more (almost completely withered)) | K: Lolium multiflorum Lam., herbicidal effect grade [11]: 5 (Herbicidal ratio of 90% or more (almost completely withered)) | M: Abutilon theophrasti, herbicidal effect grade [12]: 3 (Herbicidal ratio of 40% or higher and lower than 70%) | e: wheat, effect on crop grade [13]: 5 (Herbicidal ratio of 90% or more (almost completely withered))

CON=C(CC1CC(O)=C(c2c(C)cc(Br)cc2C)C1=O)C1CC1 (stereo not drawn) [9-002]
Herbicidal effect grade, B: Scirpus juncoides [1]: 0 (Herbicidal ratio of 5% or lower (almost no effect)) | D (Leptochloa chinensis) herbicidal effect grade ([2]; Table 24): 5 (Herbicidal ratio of 90% or more (almost completely withered)) | b (directly sowed rice plant) effect on crop grade ([3]; Table 24): 5 (Herbicidal ratio of 90% or more (almost completely withered)) | Herbicidal effect grade, F: Digitaria ciliaris [4]: 5 (Herbicidal ratio of 90% or more (almost completely withered)) | Herbicidal effect grade, I: Avena fatua [5]: 3 (Herbicidal ratio of 40% or higher and lower than 70%) | Herbicidal effect grade, M: Abutilon theophrasti [6]: 0 (Herbicidal ratio of 5% or lower (almost no effect)) | Herbicidal effect grade, P: Stellaria media [7]: 0 (Herbicidal ratio of 5% or lower (almost no effect)) | Effect on crop grade, c: corn [8]: 3 (Herbicidal ratio of 40% or higher and lower than 70%) | Effect on crop grade, f: beet [9]: 0 (Herbicidal ratio of 5% or lower (almost no effect)) | I: Avena fatua, herbicidal effect grade [10]: 5 (Herbicidal ratio of 90% or more (almost completely withered)) | K: Lolium multiflorum Lam., herbicidal effect grade [11]: 5 (Herbicidal ratio of 90% or more (almost completely withered)) | M: Abutilon theophrasti, herbicidal effect grade [12]: 4 (Herbicidal ratio of 70% or higher and lower than 90%) | e: wheat, effect on crop grade [13]: 3 (Herbicidal ratio of 40% or higher and lower than 70%)
